Some targets named below: DYRK1B (human) (UniProt Q9Y463); LTK (human) (UniProt P29376); NEK6 (human) (UniProt Q9HC98); NEK7 (human) (UniProt Q8TDX7); PRKCH (human) (UniProt P24723); STK33 (human) (UniProt Q9BYT3); AURKB (human) (UniProt Q96GD4); AURKC (human) (UniProt Q9UQB9); CDK1 CCNA2 (human) (UniProt P06493+P20248); CDK1 CCNB1 (human) (UniProt P06493+P14635); CDK2 CCNA2 (human) (UniProt P24941+P20248); CDK2 CCNE1 (human) (UniProt P24941+P24864); CDK3 CCNE1 (human) (UniProt Q00526+P24864); CDK4 CCND1 (human) (UniProt P24385+P11802); CDK4 CCND3 (human) (UniProt P30281+P11802); CDK5 CDK5R1 p25 (human) (UniProt Q00535+Q15078); CDK5 CDK5R1 p35 (human) (UniProt Q00535+Q15078); CDK6 CCND1 (human) (UniProt Q00534+P24385); CDK6 CCND3 (human) (UniProt P30281+Q00534); CDK7 CCNH MNAT1 (human) (UniProt P50613+P51948+P51946); CDK9 CCNK (human) (UniProt O75909+P50750); CDK9 CCNT1 (human) (UniProt P50750+O60563); FLT3 (human) (UniProt P36888); MAP3K7 TAB1 (human) (UniProt O43318+Q15750).

Common to all, as to assay: radiometric filter-binding kinase assay, Kinase HotSpot
Common to all, as to conditions: compound 0.5 µM; ATP 10 µM

Sequence of CDK6 CCND3 (human) (P30281 whole entry, looked up): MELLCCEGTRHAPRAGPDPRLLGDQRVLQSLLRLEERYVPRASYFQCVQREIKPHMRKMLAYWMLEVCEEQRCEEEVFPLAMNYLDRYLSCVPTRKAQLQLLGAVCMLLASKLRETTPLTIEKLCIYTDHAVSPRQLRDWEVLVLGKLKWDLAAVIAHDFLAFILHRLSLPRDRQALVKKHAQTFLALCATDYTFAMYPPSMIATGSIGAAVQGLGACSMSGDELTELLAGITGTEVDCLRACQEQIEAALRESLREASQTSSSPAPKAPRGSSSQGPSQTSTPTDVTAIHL
Sequence of CDK6 CCND3 (human) (Q00534 whole entry, looked up): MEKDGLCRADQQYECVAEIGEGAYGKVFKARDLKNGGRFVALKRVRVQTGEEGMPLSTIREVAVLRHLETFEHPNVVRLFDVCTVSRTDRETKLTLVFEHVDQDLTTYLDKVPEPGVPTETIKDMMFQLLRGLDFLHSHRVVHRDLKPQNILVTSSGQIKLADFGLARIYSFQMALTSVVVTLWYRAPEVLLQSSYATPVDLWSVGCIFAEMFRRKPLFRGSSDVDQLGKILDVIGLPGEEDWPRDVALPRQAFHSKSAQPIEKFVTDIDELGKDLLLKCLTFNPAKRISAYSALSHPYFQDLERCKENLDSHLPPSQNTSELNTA
Sequence of CDK7 CCNH MNAT1 (human) (P50613 whole entry, looked up): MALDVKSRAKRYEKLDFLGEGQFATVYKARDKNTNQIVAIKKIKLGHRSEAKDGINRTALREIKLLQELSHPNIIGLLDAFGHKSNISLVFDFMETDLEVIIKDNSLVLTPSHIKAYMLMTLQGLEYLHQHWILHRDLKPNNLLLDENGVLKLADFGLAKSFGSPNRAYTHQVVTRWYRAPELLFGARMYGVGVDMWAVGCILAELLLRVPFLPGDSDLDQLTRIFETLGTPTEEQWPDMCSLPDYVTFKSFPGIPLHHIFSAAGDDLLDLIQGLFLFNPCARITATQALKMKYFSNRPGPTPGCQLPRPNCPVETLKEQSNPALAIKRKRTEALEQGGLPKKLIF
Sequence of CDK7 CCNH MNAT1 (human) (P51946 whole entry, looked up): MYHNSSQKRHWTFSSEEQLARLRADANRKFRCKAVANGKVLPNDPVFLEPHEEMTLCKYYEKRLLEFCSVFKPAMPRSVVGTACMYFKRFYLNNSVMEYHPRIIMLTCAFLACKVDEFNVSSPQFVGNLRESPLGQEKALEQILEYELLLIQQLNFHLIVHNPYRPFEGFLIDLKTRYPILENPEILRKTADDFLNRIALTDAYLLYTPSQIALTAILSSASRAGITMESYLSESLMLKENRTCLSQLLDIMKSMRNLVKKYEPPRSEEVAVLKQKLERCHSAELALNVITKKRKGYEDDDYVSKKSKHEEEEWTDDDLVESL
Sequence of CDK7 CCNH MNAT1 (human) (P51948 whole entry, looked up): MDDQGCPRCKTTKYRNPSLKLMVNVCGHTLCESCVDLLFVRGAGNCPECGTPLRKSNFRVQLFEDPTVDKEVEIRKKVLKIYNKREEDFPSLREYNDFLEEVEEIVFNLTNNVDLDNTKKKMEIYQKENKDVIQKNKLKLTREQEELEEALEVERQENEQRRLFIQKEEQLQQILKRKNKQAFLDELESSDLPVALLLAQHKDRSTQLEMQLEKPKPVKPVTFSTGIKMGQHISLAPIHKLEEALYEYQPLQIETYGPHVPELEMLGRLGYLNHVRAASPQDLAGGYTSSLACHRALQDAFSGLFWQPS
Sequence of CDK4 CCND3 (human) (P11802 whole entry, looked up): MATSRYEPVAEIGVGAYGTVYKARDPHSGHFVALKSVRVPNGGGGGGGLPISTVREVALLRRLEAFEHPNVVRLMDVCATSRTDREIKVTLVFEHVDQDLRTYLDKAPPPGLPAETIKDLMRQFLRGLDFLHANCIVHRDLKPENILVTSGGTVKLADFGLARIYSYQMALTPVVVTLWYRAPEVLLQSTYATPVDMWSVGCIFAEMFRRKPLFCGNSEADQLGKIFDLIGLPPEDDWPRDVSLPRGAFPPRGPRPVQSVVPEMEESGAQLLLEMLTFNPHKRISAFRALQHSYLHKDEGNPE
Sequence of CDK4 CCND3 (human) (P30281 whole entry, looked up): as the sequence (P30281 whole entry, looked up) above
Sequence of CDK4 CCND1 (human) (P11802 whole entry, looked up): as the sequence (P11802 whole entry, looked up) above
Sequence of CDK4 CCND1 (human) (P24385 whole entry, looked up): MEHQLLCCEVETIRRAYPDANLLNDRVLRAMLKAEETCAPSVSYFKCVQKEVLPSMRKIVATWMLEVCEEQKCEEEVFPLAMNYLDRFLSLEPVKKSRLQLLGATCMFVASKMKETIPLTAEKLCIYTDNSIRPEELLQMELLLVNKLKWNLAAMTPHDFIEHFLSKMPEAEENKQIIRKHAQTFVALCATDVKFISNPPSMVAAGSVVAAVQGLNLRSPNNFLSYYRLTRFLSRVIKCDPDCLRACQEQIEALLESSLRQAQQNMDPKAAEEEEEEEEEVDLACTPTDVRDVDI
Sequence of CDK9 CCNK (human) (O75909 whole entry, looked up): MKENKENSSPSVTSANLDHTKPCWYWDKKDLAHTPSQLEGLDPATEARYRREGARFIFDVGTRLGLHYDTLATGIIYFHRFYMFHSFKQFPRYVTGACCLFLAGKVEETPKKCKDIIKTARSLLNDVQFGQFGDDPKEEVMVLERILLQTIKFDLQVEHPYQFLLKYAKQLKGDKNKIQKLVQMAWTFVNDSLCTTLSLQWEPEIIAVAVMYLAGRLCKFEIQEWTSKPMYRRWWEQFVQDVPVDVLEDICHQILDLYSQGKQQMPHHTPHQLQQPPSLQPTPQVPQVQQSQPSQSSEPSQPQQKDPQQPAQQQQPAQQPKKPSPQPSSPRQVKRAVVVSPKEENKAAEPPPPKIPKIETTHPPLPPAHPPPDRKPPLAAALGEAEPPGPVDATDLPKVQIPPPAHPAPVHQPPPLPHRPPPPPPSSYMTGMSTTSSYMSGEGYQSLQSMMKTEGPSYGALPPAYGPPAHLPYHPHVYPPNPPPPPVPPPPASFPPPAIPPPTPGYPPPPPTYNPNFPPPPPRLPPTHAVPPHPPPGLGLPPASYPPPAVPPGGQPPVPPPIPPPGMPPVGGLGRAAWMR
Sequence of CDK9 CCNK (human) (P50750 whole entry, looked up): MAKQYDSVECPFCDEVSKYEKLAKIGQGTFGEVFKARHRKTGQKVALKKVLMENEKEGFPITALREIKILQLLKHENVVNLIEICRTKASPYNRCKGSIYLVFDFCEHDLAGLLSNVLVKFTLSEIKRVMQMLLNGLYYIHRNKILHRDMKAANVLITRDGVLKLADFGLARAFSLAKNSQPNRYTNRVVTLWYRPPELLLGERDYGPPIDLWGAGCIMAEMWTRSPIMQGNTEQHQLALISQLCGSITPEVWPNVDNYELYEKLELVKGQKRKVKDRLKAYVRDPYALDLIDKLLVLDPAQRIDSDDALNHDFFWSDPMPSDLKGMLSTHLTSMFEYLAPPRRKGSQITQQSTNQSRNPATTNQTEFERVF
Sequence of CDK2 CCNE1 (human) (P24864 whole entry, looked up, other chains not shown): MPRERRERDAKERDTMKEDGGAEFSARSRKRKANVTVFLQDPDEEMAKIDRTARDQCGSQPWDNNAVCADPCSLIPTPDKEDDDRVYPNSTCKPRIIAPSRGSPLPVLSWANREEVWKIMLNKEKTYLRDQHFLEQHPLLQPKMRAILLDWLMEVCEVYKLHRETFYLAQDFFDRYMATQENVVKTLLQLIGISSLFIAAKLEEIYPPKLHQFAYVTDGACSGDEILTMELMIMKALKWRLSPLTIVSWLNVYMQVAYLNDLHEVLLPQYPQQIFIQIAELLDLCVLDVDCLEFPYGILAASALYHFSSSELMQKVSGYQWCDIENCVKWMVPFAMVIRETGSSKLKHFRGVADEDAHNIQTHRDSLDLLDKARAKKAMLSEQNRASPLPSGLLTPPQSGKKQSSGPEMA
Sequence of CDK3 CCNE1 (human) (P24864 whole entry, looked up): as the sequence (P24864 whole entry, looked up, other chains not shown) above
Sequence of CDK3 CCNE1 (human) (Q00526 whole entry, looked up): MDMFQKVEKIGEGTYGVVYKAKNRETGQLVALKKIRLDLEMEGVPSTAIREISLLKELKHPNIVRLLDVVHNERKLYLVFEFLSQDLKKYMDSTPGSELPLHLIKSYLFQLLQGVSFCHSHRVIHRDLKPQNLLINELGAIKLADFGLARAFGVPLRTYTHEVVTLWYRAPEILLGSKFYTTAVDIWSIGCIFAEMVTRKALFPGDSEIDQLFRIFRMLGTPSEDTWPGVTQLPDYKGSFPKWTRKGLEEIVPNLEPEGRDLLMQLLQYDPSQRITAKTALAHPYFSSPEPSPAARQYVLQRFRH

Regarding `O=C1Nc2ccc3ncsc3c2/C1=C/c1c[nH]cn1`, the residual activity (commonly the signal under treatment as a percentage of the control signal) at DYRK1B (human) was 11.3%; on LTK (human), 83%; on NEK6 (human), 93.2%; at NEK7 (human) it was 79.6%; on PRKCH (human), 41.2%; at STK33 (human), 35.7%.
On to `Cc1cc(Nc2cc(N3CCN(C)CC3)nc(Sc3ccc(NC(=O)C4CC4)cc3)n2)[nH]n1`, for which the residual activity on AURKB (human) came to 4.89%; on AURKC (human), 40.4%; on CDK1 CCNA2 (human) it was 99.1%; at CDK1 CCNB1 (human) it was 102%; at CDK2 CCNA2 (human) it was 87.8%; at CDK2 CCNE1 (human), 94.4%. The residual activity turned out to be 95.3% at CDK3 CCNE1 (human); 97.4% on CDK4 CCND1 (human); 99.2% on CDK4 CCND3 (human); 93.8% on CDK5 CDK5R1 p25 (human); 100% on CDK5 CDK5R1 p35 (human); 95.2% at CDK6 CCND1 (human). For the same compound, the residual activity on CDK6 CCND3 (human) was determined as 121%; on CDK7 CCNH MNAT1 (human), 101%; at CDK9 CCNK (human), 102%; at CDK9 CCNT1 (human) it was 93.1%; at DYRK1B (human) it was 98.8%; on FLT3 (human) it was 6.67%. The residual activity came to 84.2% at LTK (human), 90.7% at MAP3K7 TAB1 (human), 111% on PRKCH (human) and 90.1% at STK33 (human).
`CCOc1nc(NC(=O)Cc2cc(OC)ccc2OC)cc(N)c1C#N`: the residual activity on CDK1 CCNA2 (human) stood at 92.2%; on CDK1 CCNB1 (human), 108%; at CDK2 CCNA2 (human) it was 104%; at CDK2 CCNE1 (human), 88.9%; on CDK3 CCNE1 (human), 97.7%; at CDK4 CCND1 (human), 97.6%. Besides, the residual activity on CDK4 CCND3 (human) stood at 95.2%; on CDK5 CDK5R1 p25 (human), 96.8%; at CDK5 CDK5R1 p35 (human) it was 105%; on CDK6 CCND1 (human), 95.2%; on CDK6 CCND3 (human) it was 98.6%; on CDK7 CCNH MNAT1 (human) it was 103%. Further, the residual activity at CDK9 CCNK (human) worked out at 89.2%; on CDK9 CCNT1 (human), 100%; at DYRK1B (human) it was 99.2%; at LTK (human), 97.3%; at MAP3K7 TAB1 (human) it was 96.6%; on PRKCH (human), 94.3%. Also, on STK33 (human), the residual activity was found to be 97.7%.
For the compound `NC(=O)c1ccc(-c2nc(-c3ccccn3)c(-c3ccc4c(c3)OCCO4)[nH]2)cc1`, the residual activity at CDK1 CCNA2 (human) is 97.1%; on CDK1 CCNB1 (human), 83.9%; at CDK2 CCNA2 (human), 95%; on CDK2 CCNE1 (human), 93.5%; on CDK3 CCNE1 (human), 99.4%; on CDK4 CCND1 (human), 84%. The residual activity is 94.1% on CDK4 CCND3 (human); 91% on CDK5 CDK5R1 p25 (human); 98% on CDK5 CDK5R1 p35 (human); 106% at CDK6 CCND1 (human); 104% on CDK6 CCND3 (human); 97.6% on CDK7 CCNH MNAT1 (human). Further, the residual activity is 97.1% on CDK9 CCNK (human); 96.8% at CDK9 CCNT1 (human); 100% on DYRK1B (human); 93.5% on LTK (human); 104% at MAP3K7 TAB1 (human); 83.3% on PRKCH (human). Besides, on STK33 (human), the residual activity turned out to be 98.3%.

Values taken from the kinase profiling compilation of Christmann-Franck et al. (2016).
